Results taken from BigSolDB 2.1.

Nc1nc(N)nc(NC2CC2)n1
solubility (mole fraction)
Conditions | in acetic acid | in acetone | in acrylic acid | in ethanol | in isobutanol | in isopentanol | in isopropanol | in methanol
283.15 K | – | 0.000486 | – | 0.000916 | 0.000396 | 0.000469 | 0.000465 | 0.00199
288.15 K | – | 0.000535 | – | 0.00107 | 0.000483 | 0.000592 | 0.000529 | 0.00224
293.15 K | 0.0128 | 0.000617 | 0.0341 | 0.00127 | 0.000594 | 0.000725 | 0.000638 | 0.00251
298.15 K | 0.0155 | 0.00071 | 0.0413 | 0.00149 | 0.000702 | 0.00087 | 0.000751 | 0.00279
303.15 K | 0.0187 | 0.000805 | 0.0492 | 0.00172 | 0.00084 | 0.00104 | 0.000915 | 0.0031
308.15 K | 0.0227 | 0.00091 | 0.0581 | 0.00205 | 0.000983 | 0.00127 | 0.00109 | 0.00344
313.15 K | 0.0275 | 0.00103 | 0.0683 | 0.00253 | 0.00115 | 0.00148 | 0.00125 | 0.00378
318.15 K | 0.033 | 0.00114 | 0.0785 | 0.00299 | 0.00131 | 0.0018 | 0.00146 | 0.00416
323.15 K | 0.0395 | 0.00127 | 0.09 | 0.00355 | 0.0015 | 0.00214 | 0.00172 | 0.00456
328.15 K | 0.0471 | – | 0.101 | – | – | – | – | –
333.15 K | 0.0562 | – | 0.112 | – | – | – | – | –
